Measured values from patent US11938122B2, “5-[[4-[2-[5-(1-hydroxyethyl)pyridin-2-yl]ethoxy]phenyl]methyl]-1,3- thiazolidine-2,4-dione for treating nonalcoholic fatty liver disease” (Minoryx Therapeutics S.L., priority 2016, dated 2024).

Legend:
[1] = system: CYP2B6; test: CYP induction in cryopreserved human hepatocytes; type: in vitro ADME; settings: 50 μM, hepatocytes from 3 human donors
[2] = MIN-102 single oral dose (SAD) pharmacokinetics in healthy subjects; settings: human, in vivo, some doses

AUC(0-inf) [2]: 20 to 400 µg·h/mL
Structure (SMILES): CC(O)c1ccc(CCOc2ccc(CC3SC(=O)NC3=O)cc2)nc1 (racemic) [MIN-102, 5-[[4-[2-[5-(1-hydroxyethyl)pyridin-2-yl]ethoxy]phenyl]methyl]-1,3-thiazolidine-2,4-dione]
increase in activity of CYP2B6 probe reaction [1]: less than 20 % of the respective positive control induction
